# Measurements from US7273862B2, “Aminoalkyl substituted (benzodioxan, benzofuran or benzopyran) derivatives” (Janssen Pharmaceutica N.V., priority 1999, dated 2007).
# Structures can show the parent of a compound that is named as a salt.
# Experiments:
# [1] = system: fundus of the stomach (gastric tone) in conscious dogs; assay: Gastric tone measured by an electronic barostat in conscious dogs; type: in vivo, beagle dogs; conditions: I.D. administration, 0.63 mg/kg, 1 hour observation period, constant pressure of 6 mmHg
# Description: C. Pharmacological Examples C.1. Gastric Tone Measured by an Electronic Barostat in Conscious Dogs
# Gastric tone cannot be measured by manometric methods. Therefore an electronic barostat was used. This allows the study of the physiological pattern and regulation of gastric tone in conscious dogs and the influence of test-compounds on this tone.
# The barostat consists of an air injection system which is connected by a double-lumen 14-French polyvinyl tube to an ultrathin flaccid polyethylene bag (maximal volume:±700 ml). Variations in gastric tone were measured by recording changes in the volume of air within an intragastric bag, maintained at a constant pressure. The barostat maintains a constant pressure (preselected) within a flaccid air-filled bag introduced into the stomach, changing the volume of air within the bag by an electronic feedback system.
# Thus, the barostat measures gastric motor activity (contraction or relaxation) as changes in intragastric volume (decrease or increase resp.) at a constant intragastric pressure. […]
# When during a stabilisation period of maximum 90 minutes, the gastric volume is stable during 15 minutes at a constant pressure of 6 mmHg (about 0.81 kPa), the test compound was administered subcutaneously (S.C.), or intraduodenally (I.D.). Test compounds were screened, i.e. changes in gastric volume were measured, usually at 0.63 mg/kg. […]
SMILES,melting point,Maximum change in volume (mean maximal change in volume on relaxation of the fundus) [1]
"O=C1NCCCN1CC(O)CNCC(O)C1CCc2ccccc2O1 (centres unmarked) (as salt: hydrochloride) (hydrate or solvate) [Compound 15, [S(A)]-1-[3-[[2-(3,4-dihydro-2H-1-benzopyran-2-yl)-2-hydroxyethyl]amino]-2-hydroxypropyl]tetrahydro-2(1H)-pyrimidinone monohydrochloride dihydrate]",138 °C,
"O=C1NCCCN1CC(O)CNCC(O)C1CCc2ccccc2O1 (centres unmarked) [Compound 15, [S(A)]-1-[3-[[2-(3,4-dihydro-2H-1-benzopyran-2-yl)-2-hydroxyethyl]amino]-2-hydroxypropyl]tetrahydro-2(1H)-pyrimidinone monohydrochloride dihydrate]",,5 mL
